Laboratory results published in US7807701B2, “Dibenzylamine compounds and pharmaceutical use thereof” (Japan Tobacco Inc., priority 2002, dated 2010).
Counter-ions that a name gives are not always drawn.

These compounds were tested against T1, CETP (Homo sapiens, UniProt P11597) (assay: Inhibitory effect in vitro on CETP activity in total plasma). Settings: plasma of healthy subject with [3H]CE-HDL3, 37° C., 4 hr; average values.
T1 construct: The donor lipoprotein obtained above was added to plasma of healthy subject; from tissue; host or cells: whole plasma of healthy subject
T1 sequence (P11597 18-493): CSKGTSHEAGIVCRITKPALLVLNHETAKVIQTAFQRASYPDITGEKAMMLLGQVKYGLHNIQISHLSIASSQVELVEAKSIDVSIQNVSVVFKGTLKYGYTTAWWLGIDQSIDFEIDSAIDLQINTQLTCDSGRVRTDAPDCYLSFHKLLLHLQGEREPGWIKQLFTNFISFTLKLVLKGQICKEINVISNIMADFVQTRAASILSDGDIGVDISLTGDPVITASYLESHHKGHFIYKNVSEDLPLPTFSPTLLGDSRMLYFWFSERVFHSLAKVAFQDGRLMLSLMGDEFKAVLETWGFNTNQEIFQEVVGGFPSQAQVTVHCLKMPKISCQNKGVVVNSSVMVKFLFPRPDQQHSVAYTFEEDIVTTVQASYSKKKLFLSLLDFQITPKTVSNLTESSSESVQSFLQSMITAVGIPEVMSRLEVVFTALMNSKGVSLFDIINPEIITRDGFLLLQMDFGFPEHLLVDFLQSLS
Type: biochemical
Procedure, shortened: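 Healthy-donor plasma spiked with [3H]cholesteryl ester-labelled HDL3 (1,000 dpm/μL) was incubated with compound (DMF vehicle) for 4 hr at 37 °C or 4 °C. HDL was separated by MgCl2/dextran sulfate precipitation and supernatant radioactivity counted. IC50 is the concentration giving 50% inhibition of CETP activity.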

| IC50 | Structure (SMILES) |
| --- | --- |
| 230 nM | CCCN(C[C@H]1CC[C@H](C(=O)O)CC1)c1ccc(OC(F)(F)F)cc1CN(Cc1cc(C(F)(F)F)cc(C(F)(F)F)c1)c1nnn(C)n1 [Example 121, trans-4-{[N-(2-{[N′-[3,5-bis(trifluoromethyl)benzyl]-N′-(2-methyl-2H-tetrazol-5-yl)amino]methyl}-4-trifluoromethoxyphenyl)-N-propylamino]methyl}cyclohexanecarboxylic acid hydrochloride] |
| 240 nM | CC(C)CN(C[C@H]1CC[C@H](C(=O)O)CC1)c1ccc(OC(F)(F)F)cc1CN(Cc1cc(C(F)(F)F)cc(C(F)(F)F)c1)c1nnn(C)n1 [Example 122, trans-4-{[N-(2-{[N′-[3,5-bis(trifluoromethyl)benzyl]-N′-(2-methyl-2H-tetrazol-5-yl)amino]methyl}-4-trifluoromethoxyphenyl)-N-isobutylamino]methyl}cyclohexanecarboxylic acid hydrochloride] |
| 610 nM | CCN(C[C@H]1CC[C@H](C(=O)O)CC1)c1ccc(OC(F)(F)F)cc1CN(Cc1cc(Cl)cc(Cl)c1)c1nnn(C)n1 [Example 129, trans-4-{[N-(2-{[N′-(3,5-dichlorobenzyl)-N′-(2-methyl-2H-tetrazol-5-yl)amino]methyl}-4-trifluoromethoxyphenyl)-N-ethylamino]methyl}cyclohexanecarboxylic acid hydrochloride] |
| 170 nM | CCN(C[C@H]1CC[C@H](C(=O)O)CC1)c1ccc(OC(F)(F)F)cc1CN(Cc1cc(Cl)cc(C(F)(F)F)c1)c1nnn(C)n1 [Example 131, trans-4-{[N-(2-{[N′-(3-chloro-5-trifluoromethylbenzyl)-N′-(2-methyl-2H-tetrazol-5-yl)amino]methyl}-4-trifluoromethoxyphenyl)-N-ethylamino]methyl}cyclohexanecarboxylic acid hydrochloride] |
| 220 nM | CCN(C[C@H]1CC[C@H](CCC(=O)O)CC1)c1ccc(OC(F)(F)F)cc1CN(Cc1cc(C(F)(F)F)cc(C(F)(F)F)c1)c1nnn(C)n1 [Example 135, trans-3-(4-{[N-(2-{[N′-[3,5-bis(trifluoromethyl)benzyl]-N′-(2-methyl-2H-tetrazol-5-yl)amino]methyl}-4-trifluoromethoxyphenyl)-N-ethylamino]methyl}cyclohexyl)propionic acid hydrochloride] |

Continued, compound first:

| Structure (SMILES) | IC50 |
| --- | --- |
| CCN(C[C@H]1CC[C@H](CO)CC1)c1ccc(OC(F)(F)F)cc1CN(Cc1cc(C(F)(F)F)cc(C(F)(F)F)c1)c1nnn(C)n1 [Example 119, trans-(4-{[N-(2-{[N′-[3,5-bis(trifluoromethyl)benzyl]-N′-(2-methyl-2H-tetrazol-5-yl)amino]methyl}-4-trifluoromethoxyphenyl)-N-ethylamino]methyl}cyclohexyl)methanol hydrochloride] | 130 nM |
| CCN(CC(C)(C)CCCC(=O)O)c1cc2c(cc1CN(Cc1cc(C(F)(F)F)cc(C(F)(F)F)c1)c1nnn(C)n1)CCC2 [Example 120, 6-[N-(6-{[N′-[3,5-bis(trifluoromethyl)benzyl]-N′-(2-methyl-2H-tetrazol-5-yl)amino]methyl}indan-5-yl)-N-ethylamino]-5,5-dimethylhexanoic acid hydrochloride] | 280 nM |
| CCN(C[C@H]1CC[C@H](C(=O)O)CC1)c1ccc(OC(F)(F)F)cc1CN(Cc1cc(C(F)(F)F)cc(C(F)(F)F)c1)c1ccc(C)cc1 [Example 127, trans-4-{[N-(2-{[N′-[3,5-bis(trifluoromethyl)benzyl]-N′-(p-tolyl)amino]methyl}-4-trifluoromethoxyphenyl)-N-ethylamino]methyl}cyclohexanecarboxylic acid hydrochloride] | 370 nM |
| CCN(C[C@H]1CC[C@H](CC(=O)O)CC1)c1cc2c(cc1CN(Cc1cc(C(F)(F)F)cc(C(F)(F)F)c1)c1nnn(C)n1)OC(F)(F)C(F)(F)O2 [Example 137, trans-(4-{[N-(7-{[N′-[3,5-bis(trifluoromethyl)benzyl]-N′-(2-methyl-2H-tetrazol-5-yl)amino]methyl}-2,2,3,3-tetrafluoro-2,3-dihydrobenzo[1,4]dioxin-6-yl)-N-ethylamino]methyl}cyclohexyl)acetic acid hydrochloride] | 140 nM |
